Reference: patent US10988524B2, “Modified relaxin B chain peptides and their therapeutic use” (priority 2018, dated 2021)
Non-standard residues stand in square brackets, D forms with d. Residues, ends and D or L forms follow the SMILES beside them. 1Nal = N[C@@H](Cc1cccc2ccccc12)C(=O)O; αMeS = C[C@](N)(CO)C(=O)O; Nle = CCCC[C@H](N)C(=O)O; Aib = CC(C)(N)C(=O)O

Molecular target: T1, RXFP1 (Homo sapiens, UniProt Q9HBX9)
T1 sequence (Q9HBX9 1-757): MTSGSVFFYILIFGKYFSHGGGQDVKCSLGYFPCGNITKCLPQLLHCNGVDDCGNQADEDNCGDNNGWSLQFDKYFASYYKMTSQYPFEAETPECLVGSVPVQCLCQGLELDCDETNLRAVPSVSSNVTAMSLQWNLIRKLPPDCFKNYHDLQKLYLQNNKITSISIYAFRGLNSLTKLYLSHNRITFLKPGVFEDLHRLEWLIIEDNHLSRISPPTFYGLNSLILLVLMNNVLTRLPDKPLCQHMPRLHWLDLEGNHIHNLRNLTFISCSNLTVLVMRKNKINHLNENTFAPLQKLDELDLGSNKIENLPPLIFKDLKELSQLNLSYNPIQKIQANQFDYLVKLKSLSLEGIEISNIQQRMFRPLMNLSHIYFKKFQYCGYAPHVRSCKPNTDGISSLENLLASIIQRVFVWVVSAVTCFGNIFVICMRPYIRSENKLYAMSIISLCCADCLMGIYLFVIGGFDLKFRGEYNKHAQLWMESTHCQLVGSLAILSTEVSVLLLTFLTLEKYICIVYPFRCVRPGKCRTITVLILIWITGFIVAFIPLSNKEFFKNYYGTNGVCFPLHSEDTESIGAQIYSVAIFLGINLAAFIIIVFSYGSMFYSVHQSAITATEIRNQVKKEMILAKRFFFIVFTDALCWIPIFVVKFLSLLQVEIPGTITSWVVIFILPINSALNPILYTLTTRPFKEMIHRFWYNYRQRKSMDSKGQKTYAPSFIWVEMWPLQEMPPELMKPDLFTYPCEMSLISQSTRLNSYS
Assay: OVCAR5 cAMP assay (RXFP1 agonist activity, HTRF)
Details: OVCAR-5, read-out: cAMP assay in OVCAR 5 cells Emax, maximal intracellular cAMP relative to H2-relaxin in the same test occasion

| SMILES | Emax [%] |
| --- | --- |
| CCCC[C@H](NC(=O)CNC(=O)[C@H](CCC(=O)O)NC(=O)C(C)(C)NC(=O)C(C)(C)NC(=O)[C@@H](NC(=O)[C@H](CCCCNC(C)=O)NC(=O)[C@H](C)NC(=O)[C@H](CCCNC(=N)N)NC(=O)[C@@H](NC(=O)[C@H](CCCCN)NC(=O)[C@H](CCC(=O)O)NC(=O)[C@H](CCCNC(=N)N)NC(=O)CNC(=O)[C@H](CCC(=O)O)NC(=O)[C@H](CC(C)C)NC(C)=O)C(C)C)[C@@H](C)CC)C(=O)N[C@@H](CO)C(=O)N[C@H](C(=O)N[C@@H](Cc1c[nH]c2ccccc12)C(=O)N[C@@H](CO)C(=O)NC(C)(C)C(=O)N[C@@H](CCCNC(=N)N)C(=O)N[C@@H](CCCCN)C(=O)N[C@@H](CCC(N)=O)C(N)=O)[C@@H](C)O [compound 31] (Ac-LEGREKVRAK(Ac)I[Aib][Aib]EG[Nle]STWS[Aib]RKQ-NH2) | 96 |
| CCCC[C@H](NC(=O)CNC(=O)[C@H](CCC(=O)O)NC(=O)C(C)(C)NC(=O)C(C)(C)NC(=O)[C@@H](NC(=O)[C@H](CCCCNC(C)=O)NC(=O)[C@H](C)NC(=O)[C@H](CCCNC(=N)N)NC(=O)[C@@H](NC(=O)[C@H](CCCCN)NC(=O)[C@H](CCC(=O)O)NC(=O)[C@H](CCCNC(=N)N)NC(=O)CNC(=O)[C@H](CCC(=O)O)NC(=O)[C@H](CC(C)C)NC(C)=O)C(C)C)[C@@H](C)CC)C(=O)N[C@@H](CO)C(=O)N[C@H](C(=O)N[C@@H](Cc1c[nH]c2ccccc12)C(=O)N[C@@H](CO)C(=O)NC(C)(C)C(=O)N[C@@H](CCCNC(=N)N)C(=O)N[C@@H](CCCCN)C(=O)N[C@@H](CC(C)C)C(N)=O)[C@@H](C)O [compound 32] (Ac-LEGREKVRAK(Ac)I[Aib][Aib]EG[Nle]STWS[Aib]RKL-NH2) | 95 |
| CCCC[C@H](NC(=O)CNC(=O)[C@H](CCC(=O)O)NC(=O)C(C)(C)NC(=O)C(C)(C)NC(=O)[C@@H](NC(=O)[C@H](CCC(N)=O)NC(=O)[C@H](CCCCNC(C)=O)NC(=O)[C@H](CCCNC(=N)N)NC(=O)[C@@H](NC(=O)[C@H](CCCCN)NC(=O)[C@H](CCC(=O)O)NC(=O)[C@H](CCCNC(=N)N)NC(=O)CNC(=O)[C@H](CCC(=O)O)NC(=O)[C@H](CC(C)C)NC(C)=O)C(C)C)[C@@H](C)CC)C(=O)N[C@@H](CO)C(=O)N[C@H](C(=O)N[C@@H](Cc1c[nH]c2ccccc12)C(=O)N[C@@H](CO)C(=O)NC(C)(C)C(=O)N[C@@H](CCCNC(=N)N)C(=O)N[C@@H](CCCCN)C(=O)N[C@@H](CCCCN)C(N)=O)[C@@H](C)O [compound 33] (Ac-LEGREKVRK(Ac)QI[Aib][Aib]EG[Nle]STWS[Aib]RKK-NH2) | 105 |
| CC[C@H](C)[C@H](NC(=O)[C@H](CCC(N)=O)NC(=O)[C@H](C)NC(=O)[C@H](CCCNC(=N)N)NC(=O)[C@@H](NC(=O)[C@H](CCCCN)NC(=O)[C@H](CCC(=O)O)NC(=O)[C@H](CCCNC(=N)N)NC(=O)CNC(=O)[C@H](CCC(=O)O)NC(=O)[C@H](CC(C)C)NC(C)=O)C(C)C)C(=O)NC(C)(C)C(=O)NC(C)(C)C(=O)N[C@@H](CCC(=O)O)C(=O)NCC(=O)N[C@@H](CCC(N)=O)C(=O)N[C@@H](CO)C(=O)N[C@H](C(=O)N[C@@H](Cc1c[nH]c2ccccc12)C(=O)N[C@@H](CO)C(=O)NC(C)(C)C(=O)N[C@@H](CCCNC(=N)N)C(=O)N[C@@H](CCCCN)C(=O)N[C@@H](CCCCN)C(N)=O)[C@@H](C)O [compound 35] (Ac-LEGREKVRAQI[Aib][Aib]EGQSTWS[Aib]RKK-NH2) | 98 |
| CCCC[C@H](NC(=O)CNC(=O)[C@H](CCC(=O)O)NC(=O)C(C)(C)NC(=O)C(C)(C)NC(=O)[C@@H](NC(=O)[C@H](CCC(N)=O)NC(=O)[C@H](C)NC(=O)[C@H](CCCNC(=N)N)NC(=O)[C@@H](NC(=O)[C@H](CCCCN)NC(=O)[C@H](CCC(=O)O)NC(=O)[C@H](CCCNC(=N)N)NC(=O)CNC(=O)[C@H](CCC(=O)O)NC(=O)[C@H](CC(C)C)NC(C)=O)C(C)C)[C@@H](C)CC)C(=O)N[C@@H](CO)C(=O)N[C@@H](CCCCN)C(=O)N[C@@H](Cc1cccc2ccccc12)C(=O)N[C@@H](CO)C(=O)N[C@@H](CCCCN)C(=O)N[C@@H](CCCNC(=N)N)C(N)=O [compound 36] (Ac-LEGREKVRAQI[Aib][Aib]EG[Nle]SK[1Nal]SKR-NH2) | 103 |
| CCCC[C@H](NC(=O)CNC(=O)[C@H](CCC(=O)O)NC(=O)C(C)(C)NC(=O)C(C)(C)NC(=O)[C@@H](NC(=O)[C@H](CCC(N)=O)NC(=O)[C@H](C)NC(=O)[C@H](CCCNC(=N)N)NC(=O)[C@@H](NC(=O)[C@H](CCCCN)NC(=O)[C@H](CCC(=O)O)NC(=O)[C@H](CCCNC(=N)N)NC(=O)CNC(=O)[C@H](CCC(=O)O)NC(=O)[C@H](CC(C)C)NC(C)=O)C(C)C)[C@@H](C)CC)C(=O)N[C@@H](CO)C(=O)N[C@H](C(=O)N[C@@H](Cc1cccc2ccccc12)C(=O)N[C@@H](CO)C(=O)N[C@@H](CCCCN)C(=O)N[C@@H](CCCNC(=N)N)C(N)=O)[C@@H](C)O [compound 37] (Ac-LEGREKVRAQI[Aib][Aib]EG[Nle]ST[1Nal]SKR-NH2) | 104 |
| CC[C@H](C)[C@H](NC(=O)[C@H](CCC(N)=O)NC(=O)[C@H](C)NC(=O)[C@H](CCCNC(=N)N)NC(=O)[C@@H](NC(=O)[C@H](CCCCN)NC(=O)[C@H](CCC(=O)O)NC(=O)[C@H](CCCNC(=N)N)NC(=O)CNC(=O)[C@H](CCC(=O)O)NC(=O)[C@H](CC(C)C)NC(C)=O)C(C)C)C(=O)NC(C)(C)C(=O)NC(C)(C)C(=O)N[C@@H](CCC(=O)O)C(=O)NCC(=O)N[C@@H](CCSC)C(=O)N[C@@H](CO)C(=O)N[C@@H](CCCCN)C(=O)N[C@@H](Cc1c[nH]c2ccccc12)C(=O)N[C@@H](CO)C(=O)N[C@@H](CCCCN)C(=O)N[C@@H](CCCNC(=N)N)C(N)=O [compound 38] (Ac-LEGREKVRAQI[Aib][Aib]EGMSKWSKR-NH2) | 102 |

Continued, values first:

| Emax [%] | SMILES |
| --- | --- |
| 92 | CCCC[C@H](NC(=O)CNC(=O)[C@H](CCC(=O)O)NC(=O)C(C)(C)NC(=O)C(C)(C)NC(=O)[C@@H](NC(=O)[C@H](CCCCNC(C)=O)NC(=O)[C@H](C)NC(=O)[C@H](CCCNC(=N)N)NC(=O)[C@@H](NC(=O)[C@H](CCCCN)NC(=O)[C@H](CCC(=O)O)NC(=O)[C@H](CCCNC(=N)N)NC(=O)CNC(=O)[C@H](CCC(=O)O)NC(=O)[C@H](CC(C)C)NC(C)=O)C(C)C)[C@@H](C)CC)C(=O)N[C@@H](CO)C(=O)N[C@H](C(=O)N[C@@H](Cc1c[nH]c2ccccc12)C(=O)N[C@@H](CO)C(=O)NC(C)(C)C(=O)N[C@@H](CCCNC(=N)N)C(=O)N[C@@H](CCCCNC(C)=O)C(=O)N[C@@H](CCCCNC(C)=O)C(N)=O)[C@@H](C)O [compound 28] (Ac-LEGREKVRAK(Ac)I[Aib][Aib]EG[Nle]STWS[Aib]RK(Ac)K(Ac)-NH2) |
| 98 | CCCC[C@H](NC(=O)CNC(=O)[C@H](CCC(=O)O)NC(=O)C(C)(C)NC(=O)C(C)(C)NC(=O)[C@@H](NC(=O)[C@H](CCCCNC(C)=O)NC(=O)[C@H](C)NC(=O)[C@H](CCCNC(=N)N)NC(=O)[C@@H](NC(=O)[C@H](CCCCN)NC(=O)[C@H](CCC(=O)O)NC(=O)[C@H](CCCNC(=N)N)NC(=O)CNC(=O)[C@H](CCC(=O)O)NC(=O)[C@H](CC(C)C)NC(C)=O)C(C)C)[C@@H](C)CC)C(=O)N[C@@H](CO)C(=O)N[C@H](C(=O)N[C@@H](Cc1cccc2ccccc12)C(=O)N[C@@H](CO)C(=O)NC(C)(C)C(=O)N[C@@H](CCCNC(=N)N)C(=O)N[C@@H](CCCCN)C(=O)N[C@@H](CCCCNC(C)=O)C(N)=O)[C@@H](C)O [compound 29] (Ac-LEGREKVRAK(Ac)I[Aib][Aib]EG[Nle]ST[1Nal]S[Aib]RKK(Ac)-NH2) |
| 93 | CCCC[C@H](NC(=O)CNC(=O)[C@H](CCC(=O)O)NC(=O)C(C)(C)NC(=O)C(C)(C)NC(=O)[C@@H](NC(=O)[C@H](CCCCNC(C)=O)NC(=O)[C@H](C)NC(=O)[C@H](CCCNC(=N)N)NC(=O)[C@@H](NC(=O)[C@H](CCCCN)NC(=O)[C@H](CCC(=O)O)NC(=O)[C@H](CCCNC(=N)N)NC(=O)CNC(=O)[C@H](CCC(=O)O)NC(=O)[C@H](CC(C)C)NC(C)=O)C(C)C)[C@@H](C)CC)C(=O)N[C@@H](CO)C(=O)N[C@H](C(=O)N[C@@H](Cc1c[nH]c2ccccc12)C(=O)N[C@@](C)(CO)C(=O)NC(C)(C)C(=O)N[C@@H](CCCNC(=N)N)C(=O)N[C@@H](CCCCN)C(=O)N[C@@H](CCCCNC(C)=O)C(N)=O)[C@@H](C)O [compound 30] (Ac-LEGREKVRAK(Ac)I[Aib][Aib]EG[Nle]STW[αMeS][Aib]RKK(Ac)-NH2) |
| 96 | CCCC[C@H](NC(=O)CNC(=O)[C@H](CCC(=O)O)NC(=O)C(C)(C)NC(=O)C(C)(C)NC(=O)[C@@H](NC(=O)C(C)(C)NC(=O)[C@H](CCCCNC(C)=O)NC(=O)[C@H](CCCNC(=N)N)NC(=O)[C@@H](NC(=O)[C@H](CCCCN)NC(=O)[C@H](CCC(=O)O)NC(=O)[C@H](CCCNC(=N)N)NC(=O)CNC(=O)[C@H](CCC(=O)O)NC(=O)[C@H](CC(C)C)NC(C)=O)C(C)C)[C@@H](C)CC)C(=O)N[C@@H](CO)C(=O)N[C@H](C(=O)N[C@@H](Cc1c[nH]c2ccccc12)C(=O)N[C@@H](CO)C(=O)NC(C)(C)C(=O)N[C@@H](CCCNC(=N)N)C(=O)N[C@@H](CCCCN)C(=O)N[C@@H](CCCCN)C(N)=O)[C@@H](C)O [compound 34] (Ac-LEGREKVRK(Ac)[Aib]I[Aib][Aib]EG[Nle]STWS[Aib]RKK-NH2) |
